Test results reported in ChEMBL document CHEMBL1201862, “PubChem BioAssay data set” (2004).
Calls of active or inactive are those of the source.

Columns and labels:
[1] = target: T1, Fatty acid synthase (Homo sapiens, UniProt P49327); assay: inhibition of human FAS-TE enzyme activity – biochemical, endpoint fluorescence intensity, uHTS hits, dose response (AID 624327); assay type: functional;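 further: fluorescence from hydrolysis of an O-methyl fluorescein acyl ester substrate by the enzyme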
[2] = target: T1, Fatty acid synthase; assay: inhibition of human FAS-TE enzyme activity – biochemical, kinetic fluorescence intensity, dose response (AID 624326); assay type: functional;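 further: rate of fluorescence rise from hydrolysis of a fluorogenic O-methyl fluorescein ester substrate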
[3] = target: T2, Polyadenylate-binding protein 1 (Homo sapiens, UniProt P11940); assay: MLLE domain peptide-binding blockers, IC50 – biochemical, fluorescence polarization, FITC-PAM2 peptide, dose response (AID 602259); assay type: functional; details: read-out: IC50_Mean
T2 sequence (P11940 whole entry, the tested form may be a part): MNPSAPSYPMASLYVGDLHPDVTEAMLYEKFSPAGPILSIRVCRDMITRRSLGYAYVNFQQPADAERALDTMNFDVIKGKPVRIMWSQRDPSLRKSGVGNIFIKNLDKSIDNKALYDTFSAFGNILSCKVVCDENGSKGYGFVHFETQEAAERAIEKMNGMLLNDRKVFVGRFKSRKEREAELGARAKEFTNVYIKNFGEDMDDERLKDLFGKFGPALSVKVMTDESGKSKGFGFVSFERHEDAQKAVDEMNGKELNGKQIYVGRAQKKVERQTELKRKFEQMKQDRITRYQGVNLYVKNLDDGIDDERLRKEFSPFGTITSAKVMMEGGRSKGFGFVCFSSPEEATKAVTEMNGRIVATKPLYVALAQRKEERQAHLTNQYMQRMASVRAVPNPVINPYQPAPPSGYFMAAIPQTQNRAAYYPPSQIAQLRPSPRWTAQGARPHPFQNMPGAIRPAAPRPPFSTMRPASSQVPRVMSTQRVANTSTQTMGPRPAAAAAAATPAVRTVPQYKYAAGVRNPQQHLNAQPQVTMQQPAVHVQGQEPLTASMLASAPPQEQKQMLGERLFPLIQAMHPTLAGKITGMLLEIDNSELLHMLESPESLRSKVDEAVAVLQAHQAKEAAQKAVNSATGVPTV

[4] = Luminescence Cell-Based Dose Retest to Confirm Inhibitors of Cancer Stem Cells. [Related pubchem assays (depositor defined):AID2717, AID2721]; assay type: functional; details: Homo sapiens
[5] = target: T2, Polyadenylate-binding protein 1; assay: MLLE binding blockers, Cy5 peptide tracer – biochemical, fluorescence polarization, Cy5-PAM2 peptide, secondary, miRNA deadenylation inhibitor project, dose response (AID 602260); assay type: functional; details: read-out: IC50_Mean
[6] = target: T3, Calpain-2 catalytic subunit (Sus scrofa, UniProt P43367); assay: m-calpain protease blockers, concentration series – biochemical, fluorogenic peptide substrate, dose response (AID 1420); assay type: functional
T3 sequence (P43367 whole entry): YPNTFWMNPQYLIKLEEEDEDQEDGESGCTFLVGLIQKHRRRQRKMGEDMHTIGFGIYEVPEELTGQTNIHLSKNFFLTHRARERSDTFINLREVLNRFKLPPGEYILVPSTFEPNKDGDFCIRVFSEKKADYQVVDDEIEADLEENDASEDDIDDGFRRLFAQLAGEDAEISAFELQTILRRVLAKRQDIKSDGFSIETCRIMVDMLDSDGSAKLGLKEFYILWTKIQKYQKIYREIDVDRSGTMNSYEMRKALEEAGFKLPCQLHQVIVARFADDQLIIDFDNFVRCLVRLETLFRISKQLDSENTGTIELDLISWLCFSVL

[7] = target: T4, Protein RecA (Mycobacterium tuberculosis, UniProt P9WHJ3); assay: Fluorescence Cell-Free Homogeneous Dose Retest to Identify Inhibitors of RecA-Intein Splicing Activity. [Related pubchem assays (depositor defined):AID2097, AID2223, AID489010, AID492950]; assay type: functional
T4 sequence (P9WHJ3 whole entry): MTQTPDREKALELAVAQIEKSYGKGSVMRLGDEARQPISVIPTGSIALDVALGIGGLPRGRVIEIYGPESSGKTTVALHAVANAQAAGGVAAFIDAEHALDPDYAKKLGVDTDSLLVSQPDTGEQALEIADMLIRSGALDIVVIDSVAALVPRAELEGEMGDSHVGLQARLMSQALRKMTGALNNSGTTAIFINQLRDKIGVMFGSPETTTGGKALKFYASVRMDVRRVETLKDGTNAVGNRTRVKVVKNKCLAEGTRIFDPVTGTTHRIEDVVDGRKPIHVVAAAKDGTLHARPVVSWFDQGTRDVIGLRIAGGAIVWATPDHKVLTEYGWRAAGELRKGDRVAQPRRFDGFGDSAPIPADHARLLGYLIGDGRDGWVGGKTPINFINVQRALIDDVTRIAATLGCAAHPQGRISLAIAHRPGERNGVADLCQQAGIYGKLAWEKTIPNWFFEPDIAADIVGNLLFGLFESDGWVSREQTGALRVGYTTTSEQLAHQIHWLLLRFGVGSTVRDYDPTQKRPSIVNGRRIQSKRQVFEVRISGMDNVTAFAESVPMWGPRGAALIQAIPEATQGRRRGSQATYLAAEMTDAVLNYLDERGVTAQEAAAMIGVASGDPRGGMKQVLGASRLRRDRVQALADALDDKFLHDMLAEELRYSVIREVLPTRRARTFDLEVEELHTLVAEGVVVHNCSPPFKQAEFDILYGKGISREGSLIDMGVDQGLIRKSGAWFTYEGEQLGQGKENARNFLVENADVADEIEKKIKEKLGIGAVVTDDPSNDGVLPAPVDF

[8] = target: T5, Replicative DNA helicase DnaB (Mycobacterium tuberculosis, UniProt P9WMR3); assay: DnaB intein splicing inhibitors, dose response, biochemical, cell-free fluorescence (AID 449749); assay type: functional
T5 sequence (P9WMR3 whole entry): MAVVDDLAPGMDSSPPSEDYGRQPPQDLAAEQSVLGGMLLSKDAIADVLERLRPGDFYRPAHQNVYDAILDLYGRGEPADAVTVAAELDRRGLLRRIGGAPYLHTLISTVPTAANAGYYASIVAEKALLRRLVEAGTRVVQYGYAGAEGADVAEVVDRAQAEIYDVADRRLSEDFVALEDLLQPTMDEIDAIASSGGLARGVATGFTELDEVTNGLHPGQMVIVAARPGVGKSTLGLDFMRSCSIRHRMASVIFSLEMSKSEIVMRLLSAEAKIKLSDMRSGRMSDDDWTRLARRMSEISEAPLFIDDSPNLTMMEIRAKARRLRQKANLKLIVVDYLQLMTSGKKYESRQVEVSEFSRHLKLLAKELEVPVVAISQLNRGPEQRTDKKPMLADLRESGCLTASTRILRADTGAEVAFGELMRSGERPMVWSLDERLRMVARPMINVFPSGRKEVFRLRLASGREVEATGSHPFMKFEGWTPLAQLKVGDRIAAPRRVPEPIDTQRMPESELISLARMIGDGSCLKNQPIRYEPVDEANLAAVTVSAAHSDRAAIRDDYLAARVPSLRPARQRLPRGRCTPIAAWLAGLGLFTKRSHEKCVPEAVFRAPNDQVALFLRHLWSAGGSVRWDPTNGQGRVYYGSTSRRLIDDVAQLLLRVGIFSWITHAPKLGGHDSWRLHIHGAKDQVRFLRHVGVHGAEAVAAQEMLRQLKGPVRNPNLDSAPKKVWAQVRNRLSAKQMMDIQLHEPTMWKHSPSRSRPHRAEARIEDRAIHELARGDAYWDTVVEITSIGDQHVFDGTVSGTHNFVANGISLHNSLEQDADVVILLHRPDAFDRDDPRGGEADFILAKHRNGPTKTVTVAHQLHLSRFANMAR

[9] = target: T6, Ubiquitin-conjugating enzyme E2 N (Homo sapiens, UniProt P61088); assay type: functional;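 further: Dose-response confirmation in a TR-FRET assay detecting UBC13-driven polyubiquitin chain formation, inhibition measured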
T6 sequence (P61088 whole entry): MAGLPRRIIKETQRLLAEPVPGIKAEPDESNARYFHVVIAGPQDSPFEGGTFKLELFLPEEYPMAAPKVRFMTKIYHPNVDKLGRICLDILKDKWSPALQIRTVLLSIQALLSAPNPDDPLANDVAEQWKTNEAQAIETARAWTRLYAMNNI

[10] = Trypanosoma cruzi growth suppression in host cells – NIH3T3 host cells, beta-gal luminescence, confirmation (AID 2044); assay type: functional, cell-based;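 further: intracellular parasites grown in NIH/3T3 mouse fibroblasts as host cells; luminescent beta-galactosidase reporter signal from transgenic T. cruzi replicating inside host cells; inhibitors lower the luminescence signal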
[11] = NIH3T3 cell viability loss – ATP luminescence, mouse fibroblasts, counter-screen, dose response (AID 2010); assay type: functional, cell-based;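 further: cells exposed to compound for about 90 hours before reading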
[12] = viability of uninfected HEp-2 cells – cell-based, HTS, cytotoxicity control for RSV inhibitor project, dose response (AID 2410); assay type: functional; details: human respiratory syncytial virus
[13] = target: FAD-linked sulfhydryl oxidase ALR (Homo sapiens, UniProt P55789); assay: ALR-catalysed DTT oxidation blockers – biochemical, H2O2 detection, luminescence, cherry-pick, dose response (AID 493248)
Sequence of FAD-linked sulfhydryl oxidase ALR (P55789 whole entry): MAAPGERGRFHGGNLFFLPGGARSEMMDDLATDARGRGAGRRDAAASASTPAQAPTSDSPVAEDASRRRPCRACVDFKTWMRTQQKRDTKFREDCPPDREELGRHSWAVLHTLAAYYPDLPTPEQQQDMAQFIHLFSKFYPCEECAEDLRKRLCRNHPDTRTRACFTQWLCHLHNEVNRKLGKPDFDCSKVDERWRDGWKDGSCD

[14] = target: Paired box protein Pax-8 (Homo sapiens, UniProt Q06710); assay: PAX8 transcriptional activity inhibition in RMG-I – RMG-I cells, luciferase, cherry-pick, dose response (AID 687027); assay type: functional, cell-based;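 further: luciferase reporter driven by Pax8 target thyroperoxidase promoter measured by SteadyGlo luminescence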
Sequence of Paired box protein Pax-8 (Q06710 whole entry): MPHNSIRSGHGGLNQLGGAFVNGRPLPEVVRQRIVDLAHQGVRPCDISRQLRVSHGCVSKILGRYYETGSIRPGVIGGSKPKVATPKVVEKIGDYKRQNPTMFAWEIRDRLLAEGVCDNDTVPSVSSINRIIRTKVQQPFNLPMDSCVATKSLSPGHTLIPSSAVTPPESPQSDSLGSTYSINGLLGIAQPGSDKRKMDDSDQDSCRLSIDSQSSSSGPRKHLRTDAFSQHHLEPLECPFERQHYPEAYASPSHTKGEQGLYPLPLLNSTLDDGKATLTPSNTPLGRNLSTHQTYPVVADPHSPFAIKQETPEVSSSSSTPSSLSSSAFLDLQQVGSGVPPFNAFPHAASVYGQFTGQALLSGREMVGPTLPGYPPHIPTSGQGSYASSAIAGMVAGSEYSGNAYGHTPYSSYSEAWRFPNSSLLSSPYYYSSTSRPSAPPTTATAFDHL

[15] = target: Genome polyprotein (dengue virus type 2, UniProt P29990); assay: flavivirus cap methylation enzyme inhibition – biochemical, confirmation dose response, primary screen (AID 588689); assay type: functional
Sequence of Genome polyprotein (P29990 2492-3391 limits assumed): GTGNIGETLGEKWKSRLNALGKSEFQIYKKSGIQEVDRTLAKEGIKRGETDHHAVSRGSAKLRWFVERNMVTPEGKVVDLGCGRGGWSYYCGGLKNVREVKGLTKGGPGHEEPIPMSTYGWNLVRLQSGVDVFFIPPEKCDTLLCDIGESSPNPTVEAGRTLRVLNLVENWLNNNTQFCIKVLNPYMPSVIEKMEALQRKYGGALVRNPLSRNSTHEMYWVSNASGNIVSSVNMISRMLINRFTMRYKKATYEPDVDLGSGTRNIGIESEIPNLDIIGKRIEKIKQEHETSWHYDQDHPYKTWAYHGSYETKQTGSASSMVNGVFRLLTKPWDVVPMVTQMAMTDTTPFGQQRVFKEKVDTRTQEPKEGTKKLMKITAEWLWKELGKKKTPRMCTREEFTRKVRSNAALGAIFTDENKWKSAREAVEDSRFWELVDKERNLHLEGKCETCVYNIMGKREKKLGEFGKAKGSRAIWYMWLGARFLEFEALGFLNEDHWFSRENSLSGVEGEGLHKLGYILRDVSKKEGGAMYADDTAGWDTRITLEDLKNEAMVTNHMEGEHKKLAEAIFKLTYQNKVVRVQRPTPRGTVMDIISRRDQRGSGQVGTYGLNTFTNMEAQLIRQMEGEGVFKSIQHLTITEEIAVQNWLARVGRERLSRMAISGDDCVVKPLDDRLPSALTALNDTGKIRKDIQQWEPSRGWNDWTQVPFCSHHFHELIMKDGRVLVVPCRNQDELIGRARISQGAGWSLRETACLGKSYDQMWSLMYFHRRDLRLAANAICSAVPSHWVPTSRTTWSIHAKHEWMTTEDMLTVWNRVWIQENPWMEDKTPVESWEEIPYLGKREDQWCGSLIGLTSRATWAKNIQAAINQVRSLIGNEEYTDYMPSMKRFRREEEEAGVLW

[16] = target: T7, Cytochrome P450 1A2 (Homo sapiens, UniProt P05177);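 further: PubChem cytochrome P450 panel assay, CYP1A2 panel member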
T7 sequence (P05177 whole entry): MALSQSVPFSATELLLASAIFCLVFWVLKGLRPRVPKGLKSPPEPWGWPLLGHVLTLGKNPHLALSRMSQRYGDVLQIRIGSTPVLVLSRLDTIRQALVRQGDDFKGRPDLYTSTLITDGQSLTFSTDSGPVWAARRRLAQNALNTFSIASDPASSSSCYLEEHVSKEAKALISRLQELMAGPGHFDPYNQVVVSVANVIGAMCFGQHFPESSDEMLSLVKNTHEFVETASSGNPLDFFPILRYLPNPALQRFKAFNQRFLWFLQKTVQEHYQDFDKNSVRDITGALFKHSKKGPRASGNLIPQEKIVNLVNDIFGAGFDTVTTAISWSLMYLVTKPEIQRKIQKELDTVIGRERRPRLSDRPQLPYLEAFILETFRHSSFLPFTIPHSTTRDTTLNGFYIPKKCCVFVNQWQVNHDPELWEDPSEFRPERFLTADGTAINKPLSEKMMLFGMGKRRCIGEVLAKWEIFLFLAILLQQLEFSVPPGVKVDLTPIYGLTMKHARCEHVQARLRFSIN

T1 sequence (P49327 whole entry): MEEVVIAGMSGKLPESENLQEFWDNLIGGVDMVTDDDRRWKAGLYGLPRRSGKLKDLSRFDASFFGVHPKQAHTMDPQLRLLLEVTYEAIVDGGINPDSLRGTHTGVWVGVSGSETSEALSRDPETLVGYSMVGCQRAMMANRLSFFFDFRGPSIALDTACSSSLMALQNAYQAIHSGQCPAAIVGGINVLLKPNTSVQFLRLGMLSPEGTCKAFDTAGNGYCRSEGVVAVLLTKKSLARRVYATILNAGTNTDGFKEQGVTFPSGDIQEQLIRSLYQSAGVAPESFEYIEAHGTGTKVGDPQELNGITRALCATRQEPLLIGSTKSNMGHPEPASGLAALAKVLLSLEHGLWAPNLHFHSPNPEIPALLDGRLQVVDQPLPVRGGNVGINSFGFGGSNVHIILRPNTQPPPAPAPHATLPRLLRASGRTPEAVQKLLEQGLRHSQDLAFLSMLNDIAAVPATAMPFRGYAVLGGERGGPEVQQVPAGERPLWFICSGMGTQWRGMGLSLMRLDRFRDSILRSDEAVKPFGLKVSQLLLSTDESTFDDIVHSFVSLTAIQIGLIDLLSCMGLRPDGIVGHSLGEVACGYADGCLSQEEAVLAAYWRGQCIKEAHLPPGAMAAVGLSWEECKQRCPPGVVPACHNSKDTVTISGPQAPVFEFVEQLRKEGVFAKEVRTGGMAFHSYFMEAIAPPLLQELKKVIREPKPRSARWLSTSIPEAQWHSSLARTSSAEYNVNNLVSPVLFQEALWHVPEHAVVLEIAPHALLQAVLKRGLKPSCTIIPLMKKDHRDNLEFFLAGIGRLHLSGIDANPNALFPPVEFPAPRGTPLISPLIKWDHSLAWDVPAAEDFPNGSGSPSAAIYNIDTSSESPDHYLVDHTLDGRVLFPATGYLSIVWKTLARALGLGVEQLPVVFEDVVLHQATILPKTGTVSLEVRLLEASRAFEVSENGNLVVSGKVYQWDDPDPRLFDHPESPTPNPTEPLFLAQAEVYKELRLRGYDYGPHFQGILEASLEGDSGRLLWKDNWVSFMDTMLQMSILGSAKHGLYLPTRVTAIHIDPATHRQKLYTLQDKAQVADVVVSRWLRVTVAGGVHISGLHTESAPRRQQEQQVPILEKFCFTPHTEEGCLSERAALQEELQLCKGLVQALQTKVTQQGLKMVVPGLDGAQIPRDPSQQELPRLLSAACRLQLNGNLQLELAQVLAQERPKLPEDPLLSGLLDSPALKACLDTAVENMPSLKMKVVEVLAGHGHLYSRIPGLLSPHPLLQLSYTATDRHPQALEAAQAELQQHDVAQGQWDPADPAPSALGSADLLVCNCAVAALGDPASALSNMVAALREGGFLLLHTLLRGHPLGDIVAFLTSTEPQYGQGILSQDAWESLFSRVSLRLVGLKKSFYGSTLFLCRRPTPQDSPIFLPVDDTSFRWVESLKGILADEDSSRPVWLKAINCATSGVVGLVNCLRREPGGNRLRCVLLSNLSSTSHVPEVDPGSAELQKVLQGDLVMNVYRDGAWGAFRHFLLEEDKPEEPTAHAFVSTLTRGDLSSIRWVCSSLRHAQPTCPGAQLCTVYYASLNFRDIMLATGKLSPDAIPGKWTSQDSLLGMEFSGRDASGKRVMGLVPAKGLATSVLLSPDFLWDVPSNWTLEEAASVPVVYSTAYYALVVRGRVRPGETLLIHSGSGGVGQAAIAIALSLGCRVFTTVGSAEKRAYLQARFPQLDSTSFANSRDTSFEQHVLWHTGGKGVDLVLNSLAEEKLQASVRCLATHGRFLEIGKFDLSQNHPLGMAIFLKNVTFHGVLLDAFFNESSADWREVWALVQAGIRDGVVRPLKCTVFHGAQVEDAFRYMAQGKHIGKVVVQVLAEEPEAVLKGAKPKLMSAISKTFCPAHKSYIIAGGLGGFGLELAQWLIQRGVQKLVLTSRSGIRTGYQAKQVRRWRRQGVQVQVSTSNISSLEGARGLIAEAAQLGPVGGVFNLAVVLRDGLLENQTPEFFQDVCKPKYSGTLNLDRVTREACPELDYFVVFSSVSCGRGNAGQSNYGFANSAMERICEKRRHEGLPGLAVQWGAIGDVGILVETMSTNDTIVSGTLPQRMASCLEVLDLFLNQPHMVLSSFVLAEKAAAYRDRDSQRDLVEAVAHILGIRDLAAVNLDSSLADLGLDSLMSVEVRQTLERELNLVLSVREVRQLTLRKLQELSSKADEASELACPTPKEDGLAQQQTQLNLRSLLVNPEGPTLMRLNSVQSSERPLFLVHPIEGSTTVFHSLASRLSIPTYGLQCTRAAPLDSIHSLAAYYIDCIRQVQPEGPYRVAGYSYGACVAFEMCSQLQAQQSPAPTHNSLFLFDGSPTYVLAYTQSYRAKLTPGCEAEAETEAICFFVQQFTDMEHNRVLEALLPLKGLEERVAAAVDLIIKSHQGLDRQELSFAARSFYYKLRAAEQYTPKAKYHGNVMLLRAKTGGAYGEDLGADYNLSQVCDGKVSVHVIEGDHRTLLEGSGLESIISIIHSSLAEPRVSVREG

## O=C(Cn1c(=O)c2sccc2n(Cc2cccc([N+](=O)[O-])c2)c1=O)NCCc1ccccc1
[1]
  IC50: 11.1 µM (active)
[2]
  IC50: 26.7 µM (inactive)

## O=C(O)CCN1C(=O)C(=C2CCCCCC2)SC1=S
[3]
  IC50: > 66 µM (inactive)
[4]
  AC50: 40.8 µM (active)
[5]
  IC50: > 66 µM (inactive)

## CCc1c(O)nc(SCC(=O)N2CCc3cc(OC)c(OC)cc3[C@@H]2C)nc1O
[3]
  IC50: > 66 µM (inactive)
[5]
  IC50: > 66 µM (inactive)

## COc1cccc(C2=CC(c3ccc(OC)c(OC)c3)NC(S)=N2)c1 (stereo unspecified)
[6]
  IC50: 2.81 µM (not active)

## COc1ccc(OC)c(NC(=O)CSc2nc3ccccc3c3nc4ccccc4n23)c1
[6]
  IC50: > 50 µM (not active)

## O=C(CCNC(=O)c1ccc([N+](=O)[O-])cc1)NCc1ccccc1
[1]
  IC50: 11.3 µM (active)
[2]
  IC50: 10.4 µM (active)

## COc1cc(/C=C2/C(=O)N(c3ccc(C)c(C)c3)N=C2C)cc([N+](=O)[O-])c1O
[7]
  EC50: 8.54 µM (active)
[8]
  AC50: 11.3 µM (active)

## CSCCC(NC(=O)c1ccc(Cl)cc1Cl)C(=O)NNC(=O)c1csc(N2CCOCC2)n1 (stereo unspecified)
[9]
  IC50: > 20 µM (inactive)

## O=C(Cn1nnc(-c2cc(C(F)(F)F)cc(C(F)(F)F)c2)n1)NN=C(S)Nc1ccc(Cl)cc1
[3]
  IC50: > 66 µM (inactive)
[5]
  IC50: > 66 µM (inactive)

## Fc1cccc(Cn2cc(C(=S)N3CCCCC3)c3ccccc32)c1
[6]
  IC50: 2.86 µM (not active)

## Cc1ccc2nc(N=C(N)NS(=O)(=O)c3ccc([N+](=O)[O-])cc3)nc(C)c2c1
[10]
  EC50: 199 nM (active)
[1]
  IC50: 12.2 µM (active)
[2]
  IC50: 14.5 µM (active)
[11]
  EC50: > 60 µM (not active)
[12]
  CC50: 35.2 µM (active)

## C=CCn1c(=O)c(C(=O)Nc2ccccc2S(N)(=O)=O)c(O)c2ccccc21
[9]
  IC50: > 20 µM (inactive)

## COc1ccc(S(=O)(=O)N2CCC(NC(=O)OCc3c(Cl)cccc3Cl)CC2)cc1
[6]
  IC50: 7.91 µM (not active)

## CCCN(CCC)C(=O)CC(c1ccccc1)c1ccc(C)cc1O (stereo unspecified)
[6]
  IC50: > 50 µM (not active)

## CCCCN=C(S)Nc1cc([N+](=O)[O-])ccc1C
[1]
  IC50: 9.4 µM (active)
[2]
  IC50: 14.1 µM (active)

## Nc1ccc2c(c1)C(=O)Cc1ccccc1S2
[9]
  IC50: > 20 µM (inactive)

## CS(=O)(=O)c1ccc2nc(NC3(C(F)(F)F)N=C4SCCN4C3=O)sc2c1 (stereo unspecified)
[3]
  IC50: > 66 µM (inactive)
[5]
  IC50: > 66 µM (inactive)

## COc1ccccc1N1CC(C(=O)Nc2cc(C(F)(F)F)ccc2N2CCCC2)CC1=O (stereo unspecified)
[1]
  IC50: 6.81 µM (active)
[2]
  IC50: 7.17 µM (active)

## Cc1ccc(Sc2ncnc3onc(C)c23)cc1
[7]
  EC50: 6.8 µM (active)
[8]
  AC50: 14.9 µM (active)
[13]
  AC50: 9.91 µM (active)

## CN(C)S(=O)(=O)c1ccc2c(c1)C(=O)c1cc(S(=O)(=O)N(C)C)ccc1CC2
[1]
  IC50: 0.176 µM (active)
[2]
  IC50: 0.166 µM (active)

## CCC(C)(C)C1CCc2n[nH]c(C(=O)NCCCNC(=O)OC(C)(C)C)c2C1 (stereo unspecified)
[1]
  IC50: 0.524 µM (active)
[2]
  IC50: 24.3 µM (inactive)

## CCN1CCN(c2c(Cl)cccc2NC(=O)c2ccc3c(c2)OCCO3)CC1
[7]
  EC50: > 380 µM (inactive)
[8]
  AC50: > 380 µM (inactive)

## NC(=O)c1c(NC(=O)C(=O)NCCCN2CCOCC2)sc2c1CCCC2
[9]
  IC50: > 20 µM (inactive)

## CC1=NN(c2ccccc2)C(=O)C1C(=S)SC1CC(=O)NC1=O (stereo unspecified)
[3]
  IC50: > 66 µM (inactive)
[5]
  IC50: > 66 µM (inactive)

## CSCCC(c1nnnn1Cc1ccccc1)N1CCC(n2c(O)nc3ccccc32)CC1 (stereo unspecified)
[14]
  AC50: 538 nM (active)

## Cc1[nH]n(C(N)=S)c(=O)c1C(c1ccccc1)C(C#N)C#N (stereo unspecified)
[7]
  EC50: 12.9 µM (active)
[8]
  AC50: 16.2 µM (active)

## Cc1[nH]n(-c2ccccc2)c(=O)c1C(c1ccc(O)c([N+](=O)[O-])c1)c1c(C)[nH]n(-c2ccccc2)c1=O
[7]
  EC50: 1.01 µM (active)
[15]
  IC50: 28.7 µM (active)
[8]
  AC50: 2.53 µM (active)

## Cc1ccc(-n2[nH]c(C)c(/C=N/c3ccc4[nH]c(O)nc4c3)c2=O)cc1C
[16]
  AC50: 12.6 µM (inconclusive)
[3]
  IC50: 22 µM (inactive)
[5]
  IC50: 35.3 µM (inactive)

## O=C(CSc1ccccn1)N/N=C/c1c[nH]c2ccccc12
[6]
  IC50: > 50 µM (not active)

## O=C(NCC1CCCCC1)c1cc([N+](=O)[O-])ccc1Cl
[1]
  IC50: 13.8 µM (active)
[2]
  IC50: 9.77 µM (active)
